Assay results as given in US20090048229A1, “Methods for promoting wakefulness” (priority 2007, published 2009).
Where two headings read alike, the source gives them in different places.

Tests used:
[1] = target: T1, human recombinant acetylcholinesterase (Homo sapiens, UniProt P22303); test: biochemical; conditions: for inhibition at 10 µM: read-out: Inhibition of AChE (%) 10 μM
T1 construct: purchased Sigma Chemical Co (St. Louis, Mo.) C1682
Description: All reagents employed in this experiment were of analytical grade. Acetylthiocholine iodide and 5,5′-dithiobis-(2-nitro)benzoic acid (DTNB) and human recombinant acetylcholinesterase (C1682) were purchased from Sigma Chemical Co (St. Louis, Mo.).
The enzyme, compound or stigmine and buffer were preincubated for 30 minutes. At the end of the preincubation period, the substrate acetylthiocholine was added. The final assay mixture contained 10 mM Tris-buffer (pH 8), 0.3 mM Acetylthiocholine and 0.33 mM DTNB and 0.08 U/ml enzyme. At least five (5) different concentrations of the compound or stigmine were assayed per IC50 experiment.
Hydrolysis of acetylthiocholine was monitored indirectly by measurement of the formation of the conjugate between thiocholine and DTNB.

AChE = AChE (Homo sapiens, UniProt P22303); format: biochemical
Sequence of AChE (P22303 32-614): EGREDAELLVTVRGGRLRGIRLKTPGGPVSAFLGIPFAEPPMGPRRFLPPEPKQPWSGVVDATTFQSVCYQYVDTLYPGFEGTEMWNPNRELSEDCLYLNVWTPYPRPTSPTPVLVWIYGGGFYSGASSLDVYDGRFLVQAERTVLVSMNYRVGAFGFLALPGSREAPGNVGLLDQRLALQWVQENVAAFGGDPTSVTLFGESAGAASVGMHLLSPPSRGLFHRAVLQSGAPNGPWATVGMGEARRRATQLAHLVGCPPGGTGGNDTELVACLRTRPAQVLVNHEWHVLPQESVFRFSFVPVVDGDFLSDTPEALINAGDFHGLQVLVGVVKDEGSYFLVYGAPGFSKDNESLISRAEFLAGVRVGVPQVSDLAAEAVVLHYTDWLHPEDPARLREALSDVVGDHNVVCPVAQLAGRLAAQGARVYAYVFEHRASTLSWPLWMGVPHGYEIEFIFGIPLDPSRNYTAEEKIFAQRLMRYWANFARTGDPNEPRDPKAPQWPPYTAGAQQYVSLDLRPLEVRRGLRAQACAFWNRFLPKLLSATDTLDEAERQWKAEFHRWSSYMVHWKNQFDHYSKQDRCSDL

BuChE = BuChE (Homo sapiens, UniProt P06276); test: In vitro screening assay, BuChE inhibition; format: biochemical
Sequence of BuChE (P06276 29-602): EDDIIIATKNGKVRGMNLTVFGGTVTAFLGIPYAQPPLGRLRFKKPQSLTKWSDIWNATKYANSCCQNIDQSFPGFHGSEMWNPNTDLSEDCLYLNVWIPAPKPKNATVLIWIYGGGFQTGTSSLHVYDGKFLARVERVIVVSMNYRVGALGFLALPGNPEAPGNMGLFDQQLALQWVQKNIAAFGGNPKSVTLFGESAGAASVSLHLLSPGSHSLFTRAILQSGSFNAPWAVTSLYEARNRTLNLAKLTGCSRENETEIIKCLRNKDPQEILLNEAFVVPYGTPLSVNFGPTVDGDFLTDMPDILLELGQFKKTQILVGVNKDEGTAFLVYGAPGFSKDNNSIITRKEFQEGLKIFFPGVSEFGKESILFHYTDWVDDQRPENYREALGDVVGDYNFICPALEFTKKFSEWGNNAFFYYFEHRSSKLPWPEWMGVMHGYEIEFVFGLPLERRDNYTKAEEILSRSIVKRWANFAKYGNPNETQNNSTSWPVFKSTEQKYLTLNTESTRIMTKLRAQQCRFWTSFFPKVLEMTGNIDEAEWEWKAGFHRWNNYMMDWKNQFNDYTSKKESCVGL
Excerpt: An in vitro screening assay with various conjugates was completed according to the methods described in Ellman G L et al., Biochem Pharmacol., 7:88-95 (1961) and in Nadarajah B, J. Anal. Toxicol., 16:192-193 (1992), both of which are herein incorporated by reference in their entireties. The assay method was completed according to the following: […]

butylryl cholinesterase = butylryl cholinesterase (Homo sapiens, UniProt P06276); test: Inhibition of butyrylcholinesterase; format: biochemical; conditions: read-out: Inhibition of BuChE (%) 10 μM
Sequence of butylryl cholinesterase (P06276 29-602): as above
Description: The inhibition of butylryl cholinesterase was determined using methods known in the art e.g., Alcala Molel M. et al. (2003) Characterization of the anticholinesterase activity of two new tacrin-huperzine A hybrids. Neuropharmacology, 44 (6), 749-755.

[2] = system: male CD IGS (Sprague Dawley derived) rats; test: Induction of hypothermia after subcutaneous administration; format: in vivo, rat; conditions: for Induction of hypothermia MED (mg/kg s.c.): hypothermia = fall in temperature of >0.5° C.; for fall in body temperature: subcutaneous administration; for Induction of hypothermia MED (mg/kg s.c.) / Hypothermia MED / Hypothermia MED (mg/kg): s.c.; for Hypothermia MED / Hypothermia MED (mg/kg): rats
Excerpt: Cholinergic agonists cause hypothermia through a central mechanism of action (Freedman et al, 1989. Direct measurement of muscarinic agents in the central nervous system of mice using ex vivo binding. Eur. J. Pharmacol. 174:253-260). […] Since a premise of the present invention is that carbomyl esters would liberate the conjugated amine in the CNS only after inhibition of acetylcholinesterase, induction of hypothermia provides a useful correlation with the acetylcholinesterase inhibition detected in vitro and in vivo.
Hypothermia was defined as a fall in temperature of >0.5° C.
Hypothermia is a marker of CNS penetration for ACHE inhibitors.
(§1) If less soluble, the maximum injection volume was 5 mL/kg.
(§2) Baseline temperatures were taken just before injection.

male Wistar rats = test: Wake promotion (EEG/EMG sleep-wake, locomotor activity, body temperature); format: in vivo, rat; conditions: for duration of wakefulness: administered 5 hours after lights on (CT-5), FIG. 2
Description: Test compounds in various dose ranges or vehicle were administered to male Wistar rats 5 hours after lights on (CT-5). EEG, EMG, locomotor activity, drink- and food-related activity, and body temperature were concurrently monitored for 30 hr before and after treatment from rats living in separate isolated recording chambers. Sleep-wake discriminations were carried out using SCORE2004™, proprietary real-time hardware and software technology of Hypnion, Inc. (Lexington, Mass.). Comparisons were made between the reference compounds: d-amphetamine, rivastigmine, modafinil, and the following carbamoyl ester test compounds: […]

[3] = Dose range for cholinergic effects / max tolerated dose; format: in vivo, rat; conditions: s.c., rats
Description: as §1, §2

[4] = 30 min preincubation, 25° C., read-out: Inhibition of AChE IC50

T1 sequence (P22303 32-614): as the sequence (P22303 32-614) above

| SMILES | IC50 [1] [nM] | AChEI (%) 1 μM (AChE; 1 μM) [%] | AChEI (%) 10 μM (AChE; 10 μM) [%] | BuChEI (%) 10 μM (BuChE; 10 μM) [%] | Max Tolerated Dose [3] | further results |
| --- | --- | --- | --- | --- | --- | --- |
| C[C@@H](c1cccc(OC(=O)N(C)CCC=C2c3ccccc3CCc3ccccc32)c1)N(C)C [Compound 5A, S-riva-nortriptyline] | 500 | 81 | 99 | 55 | – | BuChEI (%) 1 μM (BuChE; 1 μM): 24% |
| C[C@@H](Cc1ccccc1)NC(=O)Oc1cccc([C@H](C)N(C)C)c1 [Compound 20, S-riva-d-amphetamine] | – | 35 | 76 | 20 | – | IC50 [1, 4]: 3100 nM; inhibition at 10 µM [1]: 76%; inhibition at 10 µM (butylryl cholinesterase): 20%; Induction of hypothermia MED (mg/kg s.c.) [2]: ≦1 mg/kg s.c.; fall in body temperature [2]: dose-related-related fall in body temperature; duration of wakefulness (male Wistar rats): dose-related increase in wakefulness |
| C[C@@H](Cc1ccccc1)NC(=O)Oc1ccc2c(c1)[C@]1(C)CCN(C)[C@@H]1N2C [Compound 14, Physo-d-amphetamine] | – | 45 | 94 | 28 | – | inhibition at 10 µM [1]: 94%; inhibition at 10 µM (butylryl cholinesterase): 28% |
| C#CCN(C(=O)Oc1cccc([C@H](C)N(C)C)c1)[C@H](C)Cc1ccccc1 [Compound 11, S-riva-desmethylselegiline] | – | 13 | 52 | 17 | – | – |
| C[C@@H](c1cccc(OC(=O)N[C@H]2C[C@@H]2c2ccccc2)c1)N(C)C (stereo in doubt) [Compound 2, S-riva-tranylcypromine] | 200 | 84 | 97 | 67 | 30 | BuChEI (%) 1 μM (BuChE; 1 μM): 23%; Hypothermia MED [2]: 10 mg/kg |
| Cc1ccccc1O[C@H](CCN(C)C(=O)Oc1cccc([C@H](C)N(C)C)c1)c1ccccc1 [Compound 5, S-riva-atomoxetine] | – | 29 | 89 | 14 | ≧100 | Hypothermia MED (mg/kg) [2]: ≦1 mg/kg |
| C[C@@H](c1cccc(OC(=O)N2CC[C@@H](c3ccc(F)cc3)[C@H](COc3ccc4c(c3)OCO4)C2)c1)N(C)C [Compound 9A, S-riva-paroxetine] | 9500 | 9 | 69 | 4 | – | – |
| COCCCC/C(=N\OCCNC(=O)Oc1cccc([C@H](C)N(C)C)c1)c1ccc(C(F)(F)F)cc1 [Compound 8, S-riva-fluvoxamine] | 6100 | 17 | 76 | 6 | – | – |
| C[C@@H](c1cccc(OC(=O)N(C)CCC(Oc2ccc(C(F)(F)F)cc2)c2ccccc2)c1)N(C)C (some centres unmarked) [Compound 7A, S-riva-fluoxetine] | 4800 | 11 | 76 | 15 | ≧100 | Hypothermia MED [2]: 3 mg/kg |
| CC(CC1CCCCC1)N(C)C(=O)Oc1cccc([C@H](C)N(C)C)c1 (some centres unmarked) [Compound 16, S-riva-propylhexedrine] | 900 | – | – | – | ≧100 | Hypothermia MED [2]: 10 mg/kg |
| CCN(C)C(=O)Oc1cccc([C@H](C)N(C)C)c1 [Compound 1, S-rivastigmine, reference compound] | – | – | – | – | 10 | inhibition at 10 µM (butylryl cholinesterase): 100%; BuChEI (%) 1 μM (BuChE): 45%; BuChEI (%) 10 μM (BuChE): 100%; Hypothermia MED (mg/kg) [2]: ≦0.1 mg/kg; Induction of hypothermia MED (mg/kg s.c.) [2]: ≦0.1 mg/kg s.c.; fall in body temperature [2]: dose-related-related fall in body temperature; rebound hypersomnolence (male Wistar rats; FIG. 3): rebound hypersomnolence; duration of wakefulness (male Wistar rats): increased wakefulness |
| C[C@@H](c1cccc(OC(=O)N(C)CCCC2c3ccccc3C=Cc3ccccc32)c1)N(C)C [Compound 6, S-riva-protriptyline] | 500 | 81 | 99 | 53 | >100 | BuChEI (%) 1 μM (BuChE; 1 μM): 16%; Hypothermia MED [2]: 100 mg/kg |
| C[C@@H](c1cccc(OC(=O)N(C)[C@@H](C)Cc2ccccc2)c1)N(C)C [Compound 13, S-riva-d-methamphetamine] | – | 51 | 97 | 95 | – | IC50 [1, 4]: 1100 nM; inhibition at 10 µM [1]: 97%; inhibition at 10 µM (butylryl cholinesterase): 95%; BuChEI (%) 1 μM (BuChE; 1 μM): 25%; Induction of hypothermia MED (mg/kg s.c.) [2]: 10 mg/kg s.c.; fall in body temperature [2]: dose-related-related fall in body temperature; duration of wakefulness (male Wistar rats): dose-related increase in wakefulness |
| CN1CC[C@@]2(C)c3cc(OC(=O)Nc4ccccc4)ccc3N(C)[C@@H]12 [Phenserine, reference compound] | – | – | – | – | – | AChEI (%) 1 μM (AChE): 93%; AChEI (%) 10 μM (AChE): 99%; BuChEI (%) 10 μM (BuChE): 42% |
| CN[C@@H](C)Cc1ccccc1 [d-methamphetamine, reference compound] | – | – | – | – | – | locomotor hyperactivity / stimulant activity (male Wistar rats; FIG. 5): locomotor hyperactivity |
| C#CCN(C(=O)Oc1cccc([C@@H](C)N(C)C)c1)[C@H](C)Cc1ccccc1 [Compound 17, R-riva-desmethylselegiline] | – | – | 31 | 12 | – | – |
| COc1ccccc1CC(C)N(C)C(=O)Oc1cccc([C@H](C)N(C)C)c1 (some centres unmarked) [Compound 15, S-riva-methoxyphenamine] | 1100 | 49 | 95 | 30 | – | inhibition at 10 µM [1]: 95%; inhibition at 10 µM (butylryl cholinesterase): 30% |
| C[C@@H](c1cccc(OC(=O)N(C)CCCN2c3ccccc3CCc3ccccc32)c1)N(C)C [Compound 4, S-riva-desipramine] | 200 | 91 | 99 | 60 | ≧100 | BuChEI (%) 1 μM (BuChE; 1 μM): 16%; Hypothermia MED [2]: 3 mg/kg |
| NC(=O)C[S+]([O-])C(c1ccccc1)c1ccccc1 (centres unmarked) [modafinil, reference compound] | – | – | – | – | – | duration of wakefulness (male Wistar rats): increased the duration of wakefulness |
| C[C@H](N)Cc1ccccc1 [d-amphetamine, reference compound] | – | – | – | – | – | effect on body temperature (male Wistar rats; FIG. 4): increase in body temperature (hyperthermia); duration of wakefulness (male Wistar rats): increased the duration of wakefulness |
| C#CCN(C(=O)Oc1ccc2c(c1)[C@]1(C)CCN(C)[C@@H]1N2C)[C@H](C)Cc1ccccc1 [Compound 18, Physo-desmethylselegiline] | – | – | 37 | 8 | – | – |
| C[C@@H](c1cccc(OC(=O)N2CCN(C3=Nc4ccccc4Oc4ccc(Cl)cc43)CC2)c1)N(C)C [Compound 3, S-riva-amoxapine] | 20900 | – | 16 | 6 | ≧100 | Hypothermia MED [2]: 10 mg/kg |
| C[C@@H](c1cccc(OC(=O)N(C)CC[C@H](Oc2cccc3ccccc23)c2cccs2)c1)N(C)C [Compound 10, S-riva-duloxetine] | 200 to 500 | 88 | 100 | 36 | – | – |
